Earlier results, collected in patent US20240261294A1, “METHOD FOR TREATING IDH INHIBITOR-RESISTANT SUBJECTS” (Eli Lilly and Company, priority 2021, published 2024).

Tested on: IDH2-Q316E and IDH2-1319M
Conditions: preclinical studies; cited from earlier work

Compound: CC(C)(O)CNc1nc(Nc2ccnc(C(F)(F)F)c2)nc(-c2cccc(C(F)(F)F)n2)n1 [enasidenib]
- binding and inhibition of the mutant enzymes: no longer able to bind and inhibit the mutant enzymes
